# Results as given in patent publication US10160867B2, “Benzoxaborole-containing coating resistant to cellulose-supportable fungus” (THE PENN STATE RESEARCH FOUNDATION, priority 2015, dated 2018).
# Legend:
# [1] = commercially available fungicidal agents; cited from earlier work
# Mucor spp. = assay: 3 day MIC, broth microdilution in 25% PDB; assay type: cell-based; details: 72 h
# Procedure, shortened: (§1)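 Fresh spore suspensions in 0.1% Tween 20 water were diluted to a final 0.4-1×10^5 spores/mL and exposed to serially diluted agents, keeping DMSO near 0.5-2% v/v. Plates were sealed, held at about 25° C, and fungal growth was monitored at 48 and 72 hours.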
# Aspergillus niger = assay: 3 day MIC, broth microdilution in 25% PDB; assay type: cell-based; details: 72 h
# Procedure, shortened: as §1
# Aureobasidium pullulans = assay: 3 day MIC, broth microdilution in 25% PDB; assay type: cell-based; details: 72 h
# Procedure, shortened: as §1
# [2] = system: Cladosporium cladosporioides; assay: 3 day MIC, broth microdilution in 25% PDB; assay type: cell-based; details: 72 h
# Procedure, shortened: as §1
# Fusarium oxysparum ST-33 = assay: 3 day MIC, broth microdilution in 25% PDB; assay type: cell-based; details: ST33, 72 h
# Procedure, shortened: as §1
# Rhizopus spp. = assay: 3 day MIC, broth microdilution in 25% PDB; assay type: cell-based; details: 72 h
# Procedure, shortened: as §1
# Aspergillus flavus = assay: 3 day MIC, broth microdilution in 25% PDB; assay type: cell-based; details: 72 h
# Procedure, shortened: as §1
# Stachybotrys chartarum = assay: Fungus resistance test after painting over fungal growth (defacement rating); assay type: cell-based; details: painted over fungal growth, +100 μg/mL in Olympic Home paint
# Procedure, shortened: (§2)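 Paint films with additives spiked from DMSO stocks were brushed over filter-paper discs already overgrown by fungus (defacement 3-5) on ASTM G21-13 nutrient-salts agar, extending 1-2 cm onto agar. Re-painted discs were incubated humid at elevated temperature, triplicate, and scored for regrowth by defacement rating.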
# Alternaria alternata = assay: as above; assay type: cell-based; details: painted over fungal growth
# Procedure, shortened: as §2
# Penicillium chrysogenum = assay: as above; assay type: cell-based; details: painted over fungal growth, +200 μg/mL in Valspar QuikHide paint
# Procedure, shortened: as §2
compound,measurement,setting,value
c1ccc2[nH]c(-c3cscn3)nc2c1 [Thiabendazole],Solubility in water,[1],8 µg/mL
same,MIC,Mucor spp.,> 200 µg/mL
same,MIC,Aspergillus niger,12.5 µg/mL
same,MIC,Aureobasidium pullulans,0.4 µg/mL
same,MIC,[2],0.8 µg/mL
same,MIC,Fusarium oxysparum ST-33,25 µg/mL
same,MIC,Rhizopus spp.,400 µg/mL
same,MIC,Aspergillus flavus,12.5 µg/mL
same,Average defacement rating ± standard deviation,Stachybotrys chartarum; 7 days,0.7 ± 1.6 (6)
same,Average defacement rating ± standard deviation,Stachybotrys chartarum; 14 days,0.2 ± 0.8 (6)
same,Average defacement rating ± standard deviation,Stachybotrys chartarum; 21 days,0.2 ± 0.8 (6)
same,Average defacement rating ± standard deviation,"Alternaria alternata; +100 μg/mL in Olympic Home paint, 7 days",0.0 ± 0.0 (6)
same,Average defacement rating ± standard deviation,"Alternaria alternata; +100 μg/mL in Olympic Home paint, 14 days",0.0 ± 0.0 (6)
same,Average defacement rating ± standard deviation,"Alternaria alternata; +100 μg/mL in Olympic Home paint, 21 days",0.0 ± 0.0 (6)
same,Average defacement rating ± standard deviation,"Alternaria alternata; +1000 μg/mL in Olympic Home paint, 7 days",7.3 ± 1.3 (10)
same,Average defacement rating ± standard deviation,"Alternaria alternata; +1000 μg/mL in Olympic Home paint, 14 days",3.6 ± 1.7 (10)
same,Average defacement rating ± standard deviation,"Alternaria alternata; +1000 μg/mL in Olympic Home paint, 21 days",2.8 ± 1.1 (10)
same,Average defacement rating ± standard deviation,Penicillium chrysogenum; 7 days,6.7 ± 4.6 (9)
same,Average defacement rating ± standard deviation,Penicillium chrysogenum; 14 days,2.2 ± 4.4 (9)
same,Average defacement rating ± standard deviation,Penicillium chrysogenum; 21 days,2.2 ± 4.4 (9)
